The assay has as its system M0 macrophages differentiated from THP-1. The assay can be described thus: Intracellular activity of M0 macrophages, flux analyzer (OCR). The conditions noted are these: M0, 3 ppm, 48 hours, versus solvent (DMSO) alone. The class given is cell-based, human. As for the experimental part: M0 macrophages, M1 macrophages and M2 macrophages induced to differentiate from THP-1 by the same method as Experiment 2 were measured for intracellular activity using an XFe24 (24-well) extracellular flux analyzer by Agilent Technologies (previously Seahorse Bioscience) (hereunder referred to as “flux analyzer”), with reference to Nat Immunol, 2014. 15(9): pp 846-855 (NPL 14). A flux analyzer is a device that allows non-invasive, highly sensitive periodic measurement of cells to determine the state of glycolysis as the main cellular energy metabolism pathway, and aerobic respiration by mitochondria.
Using a flux analyzer, oligomycin (ATP synthase inhibitor) (“Oligo”), FCCP (uncoupling agent) and rotenone (mitochondrial complex I inhibitor)+antimycin A (mitochondria complex III inhibitor) (“Rot+Ant”) were added at predetermined times and the oxygen consumption rate (OCR) and extracellular acidification rate (ECAR) were measured. The ECAR and OCR values used were the basal OCR and basal ECAR values at 18.3 minutes after measurement. Each measured value was calibrated by the number of cells determined by counting the cell nuclei stained by addition of Hoechst.
M0, M1 and M2 differentiated from THP-1 were prepared by the same method as Experiment 2, and hakushinin extract (hakushinin hydrolysate) prepared by the same method as Experiment 13 was added to the M0 (at 0.3 ppm, 1 ppm or 3 ppm). At 48 hours after incubation, the oxygen consumption rate (OCR) was measured using a flux analyzer. Each measured value was calibrated by the number of cells determined by counting the cell nuclei stained by addition of Hoechst (FIG. 21).
M0 and M2 differentiated from THP-1 were prepared by the same method as Experiment 2, linoleic acid, linolenic acid or juniperonic acid (3 ppm) was added to M0, and after 48 hours the oxygen consumption rate (OCR) was measured with a flux analyzer by the same method as Experiment 15. Each measured value was calibrated by the number of cells determined by counting the cell nuclei stained by addition of Hoechst.
The Basal OCR and mitochondrial respiration values for M0 were examined with the incubation time changed to 24 hours after addition of the hakushinin extract or unsaturated fatty acid. The experiment method was carried out by the same method as described in Experiment 17, except that the incubation time was changed to 24 hours after addition of the hakushinin extract or unsaturated fatty acid.

`CCCCC/C=C\C/C=C\CCCCCCCC(=O)O` [linoleic acid]: the “Basal OCR” value is given as “not significantly different” and the mitochondrial respiration result is on record as “not significantly different”.

`CC/C=C\C/C=C\C/C=C\CCCC/C=C\CCCC(=O)O` [juniperonic acid]: the “Basal OCR” value is recorded as “not significantly different” and the mitochondrial respiration entry was “not significantly different”.

Source of the values: patent US20230172837A1, “AGENT FOR PREVENTING AND/OR IMPROVING PHOTOAGING AND/OR DERMAL PIGMENTATION, COSMETIC METHOD USING SAME, AND COSMETIC DEVICE TO BE APPLIED IN SAID METHOD” (SHISEIDO COMPANY, LTD., priority 2020, published 2023).
